The numbers were not newly measured in patent US20060223182A1, “Device for producing autologous VEGF” (priority 2005, published 2006), which cites them from elsewhere.

Data set [1] deals with human keratinocytes. The settings on record: baseline about 200 pg/ml.
A further data set deals with human macrophages. Conditions: 0.5 mM H2O2 for about 30 minutes.
The test system of data set [2] is human keratinocytes. The settings on record: human keratinocytes cultured in H2O2, with cycloheximide.

Like-named read-outs stand apart in the source and are kept apart here.

With `OO` [H2O2, hydrogen peroxide], in the data set on human keratinocytes [1] (H2O2 250 uM), the VEGF production level result is on record as “about 600 pg/ml”. For the same compound, in the data set with human macrophages, the “VEGF produced per cell” value is “about 2.5 fg VEGF/cell”.

With `C[C@@H]1C[C@@H]([C@H](O)CC2CC(=O)NC(=O)C2)C(=O)[C@@H](C)C1` [cycloheximide], the “level of mRNA produced by the superinduction relative to mere addition of H2O2” value in the data set on human keratinocytes [2] is recorded as “at least 10 fold”.

For “TGF-β: growth factor, obtainable from platelet releasate”, the “increase in steady state levels of VEGF mRNA” value in the data set with VSMCs (0.3 ng/ml TGF-β, 4 hours, 21% O2, printed as 'similar increase' to 2.5% O2 alone) is given as 1.5-2 fold. Further, in the data set with VSMCs (combined treatment of TGF-β and incubation at 2.5% O2), the “increase in the level of VEGF mRNA” value was around 7 fold.

For the compound TNF-α, the VEGF production level result in the data set with human keratinocytes [1] (TNF-α 25 ng/ml) was “about 600 pg/ml”.
